Results as given in ChEMBL document CHEMBL1201862, “PubChem BioAssay data set” (2004).
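Briefly, cells in 96-well plates were exposed to five compound concentrations for 48 h, and endpoints were estimated by linear interpolation. GI50 = concentration required for 50% inhibition of growth.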 Calls of active or inactive are those of the source. Rule as the data show it: active = GI50 up to about 1.1 µM and inactive = higher.

What was measured:
Assay in all cases: inhibition of tumour cell growth, NCI panel, 48 h
786-0 = test system: 786-0
A498 = test system: A498
A549 = test system: A549
ACHN = test system: ACHN
BT-549 = test system: BT-549
CAKI-1 = test system: CAKI-1
CCRF-CEM = test system: CCRF-CEM
COLO 205 = test system: COLO 205
DU-145 = test system: DU-145
EKVX = test system: EKVX
HCC 2998 = test system: HCC 2998
HCT-116 = test system: HCT-116
HCT-15 = test system: HCT-15
HL-60 = test system: HL-60
HOP-62 = test system: HOP-62
HOP-92 = test system: HOP-92
HT-29 = test system: HT-29
Hs-578T = test system: Hs-578T
IGROV-1 = test system: IGROV-1
K562 = test system: K562
KM12 = test system: KM12
LOX IMVI = test system: LOX IMVI
M14 = test system: M14
MCF7 = test system: MCF7
MDA-MB-231 = test system: MDA-MB-231
MDA-MB-435 = test system: MDA-MB-435
MDA-N = test system: MDA-N
MOLT-4 = test system: MOLT-4
Malme-3M = test system: Malme-3M
NCI-H226 = test system: NCI-H226
NCI-H23 = test system: NCI-H23
NCI-H460 = test system: NCI-H460
NCI-H522 = test system: NCI-H522
NCI/ADR-RES = test system: NCI/ADR-RES
OVCAR-3 = test system: OVCAR-3
OVCAR-4 = test system: OVCAR-4
OVCAR-5 = test system: OVCAR-5
OVCAR-8 = test system: OVCAR-8
PC-3 = test system: PC-3
RPMI-8226 = test system: RPMI-8226
RXF 393 = test system: RXF 393
SF-268 = test system: SF-268
SF-295 = test system: SF-295
SF-539 = test system: SF-539
SK-MEL-28 = test system: SK-MEL-28
SK-MEL-2 = test system: SK-MEL-2
SK-MEL-5 = test system: SK-MEL-5
SK-OV-3 = test system: SK-OV-3
SN12C = test system: SN12C
SNB-19 = test system: SNB-19
SNB-75 = test system: SNB-75
SW-620 = test system: SW-620
T47D = test system: T47D
TK-10 = test system: TK-10
U-251 = test system: U-251
UACC-257 = test system: UACC-257
UACC-62 = test system: UACC-62
UO-31 = test system: UO-31
SR = test system: SR

CCN(CC)CCSc1c(C(C)=O)c(=O)n(-c2ccccc2)c(=S)n1-c1ccccc1
GI50 (786-0): 1.8 µM (inactive) | GI50 (A498): 19.1 µM (inactive) | GI50 (A549): 13.8 µM (inactive) | GI50 (ACHN): 3.77 µM (inactive) | GI50 (BT-549): 15.5 µM (inactive) | GI50 (CAKI-1): 10.2 µM (inactive) | GI50 (CCRF-CEM): 0.571 µM (active) | GI50 (COLO 205): 1.8 µM (inactive) | GI50 (DU-145): 3.08 µM (inactive) | GI50 (EKVX): 15.1 µM (inactive) | GI50 (HCC 2998): 11.9 µM (inactive) | GI50 (HCT-116): 2.28 µM (inactive) | GI50 (HCT-15): 2.8 µM | GI50 (HL-60): 2.52 µM (inactive) | GI50 (HOP-62): 18.9 µM (inactive) | GI50 (HOP-92): 1.9 µM (inactive) | GI50 (HT-29): 16.7 µM (inactive) | GI50 (Hs-578T): 23.4 µM (inactive) | GI50 (IGROV-1): 13 µM (inactive) | GI50 (K562): 3.09 µM (inactive) | GI50 (KM12): 17.2 µM (inactive) | GI50 (LOX IMVI): 3.32 µM (inactive) | GI50 (M14): 2.05 µM (inactive) | GI50 (MCF7): 3.18 µM (inactive) | GI50 (MDA-MB-231): 13.1 µM (inactive) | GI50 (MDA-MB-435): 6.17 µM (inactive) | GI50 (MDA-N): 6.68 µM (inactive) | GI50 (MOLT-4): 2.77 µM (inactive) | GI50 (Malme-3M): 6.1 µM (inactive) | GI50 (NCI-H226): > 40.3 µM (inactive) | GI50 (NCI-H23): 14.7 µM (inactive) | GI50 (NCI-H460): 21.1 µM (inactive) | GI50 (NCI-H522): 2.21 µM (inactive) | GI50 (NCI/ADR-RES): 22.2 µM (inactive) | GI50 (OVCAR-3): 2.81 µM (inactive) | GI50 (OVCAR-4): 9.1 µM (inactive) | GI50 (OVCAR-5): 21 µM (inactive) | GI50 (OVCAR-8): 3.46 µM (inactive) | GI50 (PC-3): 4.04 µM (inactive) | GI50 (RPMI-8226): 2.13 µM (inactive) | GI50 (RXF 393): 1.9 µM (inactive) | GI50 (SF-268): 15.8 µM (inactive) | GI50 (SF-295): > 78 µM (inactive) | GI50 (SF-539): 2.4 µM (inactive) | GI50 (SK-MEL-28): 10.5 µM (inactive) | GI50 (SK-MEL-2): 15.5 µM (inactive) | GI50 (SK-MEL-5): 13.8 µM (inactive) | GI50 (SK-OV-3): 34 µM (inactive) | GI50 (SN12C): 14.4 µM (inactive) | GI50 (SNB-19): 21.1 µM (inactive) | GI50 (SNB-75): 33.3 µM (inactive) | GI50 (SW-620): 2.25 µM (inactive) | GI50 (T47D): 2.58 µM (inactive) | GI50 (TK-10): 5.47 µM (inactive) | GI50 (U-251): 17.7 µM (inactive) | GI50 (UACC-257): 9.98 µM (inactive) | GI50 (UACC-62): 14.4 µM (inactive) | GI50 (UO-31): 1.96 µM (inactive)

O=C1c2ccccc2C2C1C(c1ccccc1)C1(Cc3ccccc3C1=O)C2c1ccccc1 (centres undefined)
GI50 (786-0): > 100 µM (inactive) | GI50 (A549): > 100 µM (inactive) | GI50 (ACHN): > 100 µM (inactive) | GI50 (BT-549): > 100 µM (inactive) | GI50 (CCRF-CEM): 4.85 µM (inactive) | GI50 (COLO 205): > 100 µM (inactive) | GI50 (DU-145): > 100 µM (inactive) | GI50 (EKVX): > 100 µM (inactive) | GI50 (HCC 2998): > 46.8 µM (inactive) | GI50 (HCT-116): 2.2 µM (inactive) | GI50 (HCT-15): > 100 µM | GI50 (HL-60): 3.67 µM (inactive) | GI50 (HOP-62): > 100 µM (inactive) | GI50 (HOP-92): > 100 µM (inactive) | GI50 (HT-29): 14.8 µM (inactive) | GI50 (Hs-578T): > 100 µM (inactive) | GI50 (IGROV-1): 11.7 µM (inactive) | GI50 (K562): 5.53 µM (inactive) | GI50 (KM12): > 100 µM (inactive) | GI50 (LOX IMVI): 21.6 µM (inactive) | GI50 (M14): > 100 µM (inactive) | GI50 (MCF7): > 31.7 µM (inactive) | GI50 (MDA-MB-231): 4.72 µM (inactive) | GI50 (MDA-MB-435): > 73.6 µM (inactive) | GI50 (MDA-N): 4.28 µM (inactive) | GI50 (MOLT-4): 3.58 µM (inactive) | GI50 (Malme-3M): > 100 µM (inactive) | GI50 (NCI-H226): > 100 µM (inactive) | GI50 (NCI-H23): > 100 µM (inactive) | GI50 (NCI-H460): > 67 µM (inactive) | GI50 (NCI-H522): 20.5 µM (inactive) | GI50 (NCI/ADR-RES): > 100 µM (inactive) | GI50 (OVCAR-3): > 100 µM (inactive) | GI50 (OVCAR-4): > 100 µM (inactive) | GI50 (OVCAR-5): > 100 µM (inactive) | GI50 (OVCAR-8): > 100 µM (inactive) | GI50 (PC-3): 12.5 µM (inactive) | GI50 (RXF 393): > 100 µM (inactive) | GI50 (SF-268): > 100 µM (inactive) | GI50 (SF-295): > 29.6 µM (inactive) | GI50 (SF-539): > 100 µM (inactive) | GI50 (SK-MEL-28): > 100 µM (inactive) | GI50 (SK-MEL-2): > 100 µM (inactive) | GI50 (SK-MEL-5): > 55.8 µM (inactive) | GI50 (SK-OV-3): > 100 µM (inactive) | GI50 (SN12C): > 100 µM (inactive) | GI50 (SNB-19): > 100 µM (inactive) | GI50 (SNB-75): 30.4 µM (inactive) | GI50 (SR): 7.57 µM (inactive) | GI50 (SW-620): > 100 µM (inactive) | GI50 (T47D): 11.4 µM (inactive) | GI50 (TK-10): > 100 µM (inactive) | GI50 (U-251): > 100 µM (inactive) | GI50 (UACC-257): > 100 µM (inactive) | GI50 (UACC-62): 10.1 µM (inactive) | GI50 (UO-31): > 29.8 µM (inactive)
